Experimental data as given in ChEMBL document CHEMBL1201862, “PubChem BioAssay data set” (2004).
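Five concentrations, 48 hours, 96-well plates. Abbreviation: GI50, concentration required for 50% inhibition of growth.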 The source made the active and inactive calls. Cut-off read from the data, not from the text of the source: active = GI50 up to about 1.1 µM and inactive = higher.

Tests used:
Assay in all cases: DTP human tumour cell line panel, 48 h
A498 = tested on: A498
ACHN = tested on: ACHN
DU-145 = tested on: DU-145
EKVX = tested on: EKVX
HL-60 = tested on: HL-60
Hs-578T = tested on: Hs-578T
MCF7 = tested on: MCF7
MDA-MB-231 = tested on: MDA-MB-231
MDA-MB-435 = tested on: MDA-MB-435
NCI-H460 = tested on: NCI-H460
NCI-H522 = tested on: NCI-H522
OVCAR-4 = tested on: OVCAR-4
OVCAR-5 = tested on: OVCAR-5
OVCAR-8 = tested on: OVCAR-8
PC-3 = tested on: PC-3
RPMI-8226 = tested on: RPMI-8226
SF-539 = tested on: SF-539
SNB-19 = tested on: SNB-19
TK-10 = tested on: TK-10

`CN1CCN(CCCCNc2cc3c4ccccc4c(NCCCCN4CCN(C)CC4)cc3c3ccccc23)CC1` was tested, and the GI50 (A498) was 12 µM (inactive), the GI50 (ACHN) was 4.06 µM (inactive) and the GI50 (DU-145) was 1.67 µM (inactive). The GI50 (EKVX) was 7.43 µM (inactive), the GI50 (HL-60) was 4.03 µM (inactive) and the GI50 (Hs-578T) was 2.38 µM (inactive). The GI50 (MCF7) was 1.34 µM (inactive), the GI50 (MDA-MB-231) was 1.62 µM (inactive) and the GI50 (MDA-MB-435) was 0.184 µM (active). For the same compound, the GI50 (NCI-H460) was 1.53 µM (inactive), the GI50 (NCI-H522) was 1.93 µM (inactive) and the GI50 (OVCAR-4) was 1.36 µM (inactive). For the same compound, the GI50 (OVCAR-5) was 5.56 µM (inactive), the GI50 (OVCAR-8) was 1.88 µM (inactive) and the GI50 (PC-3) was 3.31 µM (inactive). For the same compound, the GI50 (RPMI-8226) was 1.38 µM (inactive), the GI50 (SF-539) was 1.94 µM (inactive) and the GI50 (SNB-19) was 4.49 µM (inactive). The GI50 (TK-10) was 6.95 µM (inactive).
For `COc1cccc(/C=C/c2ccnc3ccccc23)c1OC`, the GI50 (A498) was > 10 µM (inactive), the GI50 (ACHN) was > 10 µM (inactive) and the GI50 (DU-145) was > 10 µM (inactive). For the same compound, the GI50 (EKVX) was 9.66 µM (inactive), the GI50 (HL-60) was > 10 µM (inactive) and the GI50 (Hs-578T) was > 10 µM (inactive). The GI50 (MCF7) was > 10 µM (inactive), the GI50 (MDA-MB-231) was > 10 µM (inactive) and the GI50 (MDA-MB-435) was 2.86 µM (inactive). For the same compound, the GI50 (NCI-H460) was > 10 µM (inactive), the GI50 (NCI-H522) was > 10 µM (inactive) and the GI50 (OVCAR-4) was > 10 µM (inactive). The GI50 (OVCAR-5) was > 10 µM (inactive), the GI50 (OVCAR-8) was > 10 µM (inactive) and the GI50 (PC-3) was > 10 µM (inactive). The GI50 (RPMI-8226) was 2.27 µM (inactive), the GI50 (SF-539) was > 10 µM (inactive) and the GI50 (SNB-19) was > 10 µM (inactive). For the same compound, the GI50 (TK-10) was > 10 µM (inactive).
With `Oc1ccc(Nc2nc(Cl)c3nc[nH]c3n2)cc1` the GI50 (A498) was > 100 µM (inactive), the GI50 (ACHN) was 93.1 µM (inactive) and the GI50 (DU-145) was > 100 µM (inactive). For the same compound, the GI50 (EKVX) was > 100 µM (inactive), the GI50 (HL-60) was 34.5 µM (inactive) and the GI50 (Hs-578T) was > 100 µM (inactive). The GI50 (MCF7) was > 100 µM (inactive), the GI50 (MDA-MB-231) was > 100 µM (inactive) and the GI50 (MDA-MB-435) was > 100 µM (inactive). For the same compound, the GI50 (NCI-H460) was > 100 µM (inactive), the GI50 (NCI-H522) was > 100 µM (inactive) and the GI50 (OVCAR-4) was > 100 µM (inactive). The GI50 (OVCAR-5) was > 100 µM (inactive), the GI50 (OVCAR-8) was > 100 µM (inactive) and the GI50 (PC-3) was > 100 µM (inactive). The GI50 (RPMI-8226) was 61.4 µM (inactive), the GI50 (SF-539) was > 100 µM (inactive) and the GI50 (SNB-19) was > 100 µM (inactive). For the same compound, the GI50 (TK-10) was > 100 µM (inactive).
`CCOc1ccc2nc(NC(=O)/C(CC(=O)CC(C3=C(O)c4ccccc4CC3=O)c3ccccc3)=N\O)sc2c1` (centres undefined) was tested, and the GI50 (A498) was > 100 µM (inactive), the GI50 (ACHN) was > 100 µM (inactive) and the GI50 (DU-145) was > 100 µM (inactive). The GI50 (EKVX) was > 100 µM (inactive), the GI50 (HL-60) was > 100 µM (inactive) and the GI50 (Hs-578T) was > 100 µM (inactive). For the same compound, the GI50 (MCF7) was > 100 µM (inactive), the GI50 (MDA-MB-231) was > 100 µM (inactive) and the GI50 (MDA-MB-435) was > 100 µM (inactive). The GI50 (NCI-H460) was > 100 µM (inactive), the GI50 (NCI-H522) was > 100 µM (inactive) and the GI50 (OVCAR-4) was > 100 µM (inactive). For the same compound, the GI50 (OVCAR-5) was > 100 µM (inactive), the GI50 (OVCAR-8) was > 100 µM (inactive) and the GI50 (PC-3) was > 100 µM (inactive). The GI50 (RPMI-8226) was > 100 µM (inactive), the GI50 (SF-539) was > 100 µM (inactive) and the GI50 (SNB-19) was > 100 µM (inactive).
For `COc1ccccc1N1C(=O)CS(=O)(=O)C1c1cccc(Oc2ccccc2)c1` (centres undefined), the GI50 (A498) was 18.9 µM (inactive), the GI50 (ACHN) was 19 µM (inactive) and the GI50 (DU-145) was 23.9 µM (inactive). The GI50 (EKVX) was 20.8 µM (inactive), the GI50 (HL-60) was 12.7 µM (inactive) and the GI50 (Hs-578T) was 19.1 µM (inactive). The GI50 (MCF7) was 6.21 µM (inactive), the GI50 (MDA-MB-231) was 15.5 µM (inactive) and the GI50 (MDA-MB-435) was 4.26 µM (inactive). For the same compound, the GI50 (NCI-H460) was 15.2 µM (inactive), the GI50 (NCI-H522) was 12.6 µM (inactive) and the GI50 (OVCAR-4) was 15 µM (inactive). For the same compound, the GI50 (OVCAR-5) was 26.2 µM (inactive), the GI50 (OVCAR-8) was 16.5 µM (inactive) and the GI50 (PC-3) was 12.2 µM (inactive). For the same compound, the GI50 (SF-539) was 16 µM (inactive), the GI50 (SNB-19) was 18 µM (inactive) and the GI50 (TK-10) was 18.5 µM (inactive).
With `Cn1c2n/c(=N\c3ccc(Cl)cc3)[n+]3ccc4ccccc4c3c-2c([O-])n1-c1ccccc1` the GI50 (A498) was > 100 µM (inactive), the GI50 (ACHN) was > 100 µM (inactive) and the GI50 (DU-145) was > 100 µM (inactive). The GI50 (EKVX) was > 100 µM (inactive), the GI50 (HL-60) was > 100 µM (inactive) and the GI50 (Hs-578T) was > 100 µM (inactive). For the same compound, the GI50 (MCF7) was > 100 µM (inactive), the GI50 (MDA-MB-231) was > 100 µM (inactive) and the GI50 (MDA-MB-435) was > 100 µM (inactive). For the same compound, the GI50 (NCI-H460) was > 100 µM (inactive), the GI50 (NCI-H522) was > 100 µM (inactive) and the GI50 (OVCAR-4) was > 100 µM (inactive). For the same compound, the GI50 (OVCAR-5) was > 100 µM (inactive), the GI50 (OVCAR-8) was > 100 µM (inactive) and the GI50 (PC-3) was > 100 µM (inactive). For the same compound, the GI50 (RPMI-8226) was > 100 µM (inactive), the GI50 (SNB-19) was > 100 µM (inactive) and the GI50 (TK-10) was > 100 µM (inactive).
In the case of `CCCC(=O)N(C(=O)CCC)C1=C(Cl)C(=O)c2ccccc2C1=O`, the GI50 (A498) is reported as 18.3 µM (inactive), the GI50 (ACHN) is reported as 1.28 µM (inactive) and the GI50 (DU-145) is reported as 14 µM (inactive). The GI50 (EKVX) was 5.36 µM (inactive), the GI50 (HL-60) was 0.574 µM (active) and the GI50 (Hs-578T) was 8.04 µM (inactive). The GI50 (MCF7) was 1.84 µM (inactive), the GI50 (MDA-MB-231) was 18.2 µM (inactive) and the GI50 (MDA-MB-435) was 4.63 µM (inactive). For the same compound, the GI50 (NCI-H460) was 5.22 µM (inactive), the GI50 (NCI-H522) was 0.611 µM (active) and the GI50 (OVCAR-4) was 5.52 µM (inactive). The GI50 (OVCAR-5) was 7.67 µM (inactive), the GI50 (OVCAR-8) was 6.25 µM (inactive) and the GI50 (PC-3) was 4.06 µM (inactive). The GI50 (SF-539) was 3.62 µM (inactive), the GI50 (SNB-19) was 6.73 µM (inactive) and the GI50 (TK-10) was 4.1 µM (inactive).
